Results taken from ChEMBL document CHEMBL1146756, “Studies on aromatic compounds: inhibition of calpain I by biphenyl derivatives and peptide-biphenyl hybrids” (Bioorg Med Chem Lett, 2004).

Target: T1, Calpain small subunit 1 (Sus scrofa, UniProt P04574)
T1 sequence (P04574 whole entry): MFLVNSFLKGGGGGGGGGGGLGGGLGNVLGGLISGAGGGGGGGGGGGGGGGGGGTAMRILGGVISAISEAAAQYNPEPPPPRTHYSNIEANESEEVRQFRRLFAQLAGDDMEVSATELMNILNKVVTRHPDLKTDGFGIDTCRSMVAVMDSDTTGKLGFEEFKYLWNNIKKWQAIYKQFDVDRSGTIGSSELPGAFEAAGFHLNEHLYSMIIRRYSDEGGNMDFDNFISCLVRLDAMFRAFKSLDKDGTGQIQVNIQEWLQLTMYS
Experiment: Ability to displace labelledcasein from calpain I in porcine erythrocytes; Weak inhibitor
Type: cell-based

SMILES | IC50
CNC(=O)[C@@H](Cc1ccccc1)NC(=O)[C@H](Cc1ccccc1)NC(=O)c1ccccc1-c1ccccc1C(=O)N[C@@H](CC(C)C)C(=O)N[C@@H](CCSC)C(=O)OC | Weak inhibitor
COC(=O)[C@H](Cc1ccc(O)cc1)NC(=O)c1ccccc1-c1ccccc1C(=O)N[C@@H](Cc1ccccc1)C(=O)N[C@@H](CCSC)C(=O)OC | Weak inhibitor

Target: not listed separately
Experiment: Displacement of casein from calpain 1 in porcine erythrocytes
Type: cell-based, Sus scrofa

SMILES | IC50 [µM]
COC(=O)[C@H](Cc1ccccc1)NC(=O)c1ccccc1-c1ccccc1C(=O)N[C@@H](Cc1ccccc1)C(=O)OC | 0.064
COC(=O)[C@H](Cc1ccccc1)NC(=O)[C@H](CCSC)NC(=O)c1ccccc1-c1ccccc1C(=O)N[C@@H](CCSC)C(=O)N[C@@H](Cc1c[nH]c2ccccc12)C(=O)OC | 77
O=C(N[C@@H](Cc1ccc(O)cc1)C(=O)O)c1ccccc1-c1ccccc1C(=O)N[C@@H](Cc1ccc(O)cc1)C(=O)O | 200
COC(=O)[C@@H](NC(=O)c1ccccc1-c1ccccc1C(=O)N[C@H](C(=O)OC)C(C)C)C(C)C | 7
COC(=O)[C@H](Cc1ccccc1)NC(=O)[C@@H](NC(=O)c1ccccc1-c1ccccc1C(=O)N[C@H](C(=O)N[C@@H](Cc1ccccc1)C(=O)OC)C(C)C)C(C)C | 0.024
COC(=O)[C@H](Cc1c[nH]c2ccccc12)NC(=O)c1ccccc1-c1ccccc1C(=O)N[C@@H](Cc1c[nH]c2ccccc12)C(=O)OC | 0.037
C=CCO[C@H]1O[C@H](CNC(=O)c2ccccc2-c2ccccc2C(=O)N[C@@H](Cc2ccc(O)cc2)C(=O)OC)C=C[C@@H]1CC(=O)N[C@@H](Cc1ccccc1)C(=O)N[C@@H](CC(C)C)C(=O)NC | 116
COC(=O)[C@@H](NC(=O)[C@H](Cc1ccccc1)NC(=O)c1ccccc1-c1ccccc1C(=O)N[C@@H](Cc1ccccc1)C(=O)Nc1ccccc1-c1ccccc1NC(=O)[C@H](C)NC(=O)OCC1c2ccccc2-c2ccccc21)C(C)C | 41
O=C(N[C@@H](Cc1ccccc1)C(=O)O)c1ccccc1-c1ccccc1C(=O)N[C@@H](Cc1ccccc1)C(=O)O | 0.07
COC(=O)[C@H](Cc1ccccc1)NC(=O)[C@H](Cc1ccccc1)NC(=O)c1ccccc1-c1ccccc1C(=O)N[C@@H](Cc1ccccc1)C(=O)N[C@@H](Cc1ccccc1)C(=O)OC | 0.098

Target: T1, Calpain small subunit 1
Experiment: Ability to displace labelledcasein from calpain I in porcine erythrocytes; Noninhibitor
Type: cell-based

SMILES | IC50
COC(=O)[C@H](Cc1c[nH]cn1)NC(=O)c1ccccc1-c1ccccc1C(=O)N[C@@H](Cc1c[nH]cn1)C(=O)OC | No inhibition
COC(=O)[C@H](Cc1ccccc1)NC(=O)c1ccccc1-c1ccccc1C(=O)O | No inhibition
COC(=O)[C@H](Cc1ccc(O)cc1)NC(=O)c1ccccc1-c1ccccc1C(=O)N[C@@H](Cc1ccc(O)cc1)C(=O)OC | No inhibition
CCC(C)[C@H](NC(=O)c1ccccc1-c1ccccc1C(=O)N[C@H](C(=O)OC)C(C)CC)C(=O)OC (some centres not stated) | No inhibition
COC(=O)[C@H](C)NC(=O)c1ccccc1-c1ccccc1C(=O)N[C@@H](C)C(=O)OC | No inhibition
